Test system: rat stomach fundus strips
Procedure: Fundus strips (approximately 0.4×1 cm) were cut from the stomach of adult male Wistar rats parallel to the circular muscle fibers. They were placed between two platinum ring electrodes, 1 cm apart (Radnoti, ADInstruments, USA) in 10 ml tissue baths containing Krebs solution bubbled with 5% CO2 in O2 and maintained at 37° C. Tissues were suspended under 1.5 g resting tension. Changes of tension were measured isometrically with force transducers and recorded with a PowerLab 8/30 data acquisition system (ADInstruments, USA). Tissues were allowed to equilibrate for 60 min during which time bath solutions were changed every 15 min.
EFS was achieved by applying 0.5 ms pulses, 5 Hz frequency, at a maximally effective voltage of 70 V. EFS was applied for 30 sec at 3 min intervals for a 30 min initial period. This initial period was separated by a 5 min interval with wash out of the bath solution. Then, a second period of stimulation was started. […] Responses to the agents were measured and expressed as % of the mean of three or four pre-drug responses to EFS. All compounds were dissolved at 1 mM in distilled water or MeOH, as stock solutions.

**Q.** With `CCCCCCCC(=O)OC[C@H](NC(=O)[C@H](CO)NC(=O)CN)C(=O)N[C@@H](Cc1ccccc1)C(=O)N[C@@H](CC(C)C)C(=O)N[C@@H](CO)C(=O)N1CCC[C@H]1C(=O)N[C@@H](CCC(=O)O)C(=O)N[C@@H](Cc1c[nH]cn1)C(=O)N[C@@H](CCC(N)=O)C(=O)N[C@@H](CCCNC(=N)N)C(=O)N[C@H](C(=O)N[C@@H](CCC(N)=O)C(=O)N[C@@H](CCC(N)=O)C(=O)N[C@@H](CCCNC(=N)N)C(=O)N[C@@H](CCCCN)C(=O)N[C@@H](CCC(=O)O)C(=O)N[C@@H](CO)C(=O)N[C@@H](CCCCN)C(=O)N[C@@H](CCCCN)C(=O)N1CCC[C@H]1C(=O)N1CCC[C@H]1C(=O)N[C@@H](C)C(=O)N[C@@H](CCCCN)C(=O)N[C@@H](CC(C)C)C(=O)N[C@@H](CCC(N)=O)C(=O)N1CCC[C@H]1C(=O)N[C@@H](CCCNC(=N)N)C(=O)O)C(C)C` [Ghrelin] as the molecule, how does the EC50 read?
**A.** 5 nM

Reference: patent publication US10258602B2 (Ocera Therapeutics, Inc., priority 2007, dated 2019)
